Measured values as given in patent US8192962B2, “Processes for detecting toxic substances” (Daikin Industries, Ltd., priority 2001, dated 2012).

Tested on: Metabolism protein genes
Assay: DNA chip mRNA expression in yeast, metabolism protein genes (Table 7)
Assay type: cell-based, Saccharomyces cerevisiae S288C
Experimental: Yeast (Saccharomyces cerevisiae S288C (α SUC2mal mel gap2 CUP1)) were incubated at 25° C. on YPD medium (yeast extract 1%, polypepton 2%, glucose 2%). One of toxic chemical substances was added to the cells at logarithmic growth phase, and the cells were further incubated for two hours. Cells were cultured without any chemical substance in the same condition, and were used as control. Concentrations of the chemical substances were defined to inhibit the growth of the yeast but not lead to death.
After completion of the incubation, the culture was centrifuged to collect the cells. To the cells, sodium acetate buffer (50 mM sodium acetate, 10 mM EDTA, 1% SDS) was added, and the mixture was shaken at 65° C. for five minutes, followed by returning to room temperature, and obtaining the supernatant, of which the procedures were repeated two times. To the supernatant, ½ amount of a solution of phenol/chloroform was added, and the mixture was centrifuged to give a supernatant, which was added with an equal amount of chloroform, and the mixture was centrifuged to give a supernatant. To the supernatant, an equal amount of isopropanol containing 0.3 M sodium acetate was added, and the mixture was allowed to stand at room temperature for 30 minutes, after which the mixture was centrifuged to give a sediment of the whole RNAs. Seventy % ethanol was added to the sediment, and the mixture was again centrifuged to give a sediment, which was then dried and dissolved in water. mRNA was isolated from the whole RNAs as followings. In view of the fact that a poly A chain is attached to the 3′ terminus of mRNA, a polynucleotide having a poly T structure which was immobilized on the surface of latex beads was used to trap the mRNA, and then the mRNA was washed and eluted with spine column (Oligotex-dT30<Super>mRNA Purification Kit, Takara). Reverse transcription of the mRNA was conducted with a reverse transcriptase (Super Script II Reverse Transcriptase; catalogue No. 18064-014, GibcoBRL) using fluorescence-labeled nucleotides to give cDNAs that were introduced with Cy3-dUTP or Cy5-dUTP during the reverse transcription.
The labeled cDNAs were dissolved in TE buffer (10mM Tris-HCl/1 mM EDTA, pH8.0), and the solution was dropped on the DNA chip containing the whole genes of yeast (DNA Chip Research Inc. Japan) so that the cDNAs were hybridized on the DNA chip at 65° C. for over 12 hours. The fluoresces intensity of the DNA chip was read with a scanner, and the ratio relative to the fluorescence intensity resulting from the absence of chemical substance was estimated as the following, which is shown in Tables 1 to 9: […]

O=[N+]([O-])c1cc[n+]([O-])c2ccccc12 [(5), 4-nitroquinolin-N-oxide]
0.8: The level of expressed mRNA in the presence of chemical substance/The level of expressed mRNA in the absence of chemical substance (yeast gene YKL035W) | level of expressed mRNA in the presence/in the absence of chemical substance (yeast gene YKL148C) | The level of expressed mRNA in the presence of chemical substance/The level of expressed mRNA in the absence of chemical substance (yeast gene YLL058W) | level of expressed mRNA in the presence/in the absence of chemical substance (yeast gene YLR089C) | The level of expressed mRNA in the presence of chemical substance/The level of expressed mRNA in the absence of chemical substance (yeast gene YLR180W) | The level of expressed mRNA in the presence of chemical substance/The level of expressed mRNA in the absence of chemical substance (yeast gene YLR300W) | The level of expressed mRNA in the presence of chemical substance/The level of expressed mRNA in the absence of chemical substance (yeast gene YNL104C) | The level of expressed mRNA in the presence of chemical substance/The level of expressed mRNA in the absence of chemical substance (yeast gene YNL106C) | The level of expressed mRNA in the presence of chemical substance/The level of expressed mRNA in the absence of chemical substance (yeast gene YNR019W) | level of expressed mRNA in the presence/in the absence of chemical substance (yeast gene YOR251C) | The level of expressed mRNA in the presence of chemical substance/The level of expressed mRNA in the absence of chemical substance (yeast gene YPR026W)
0.4: The level of expressed mRNA in the presence of chemical substance/The level of expressed mRNA in the absence of chemical substance (yeast gene YMR189W) | The level of expressed mRNA in the presence of chemical substance/The level of expressed mRNA in the absence of chemical substance (yeast gene YMR296C)
1.5: level of expressed mRNA in the presence/in the absence of chemical substance (yeast gene YKL157W) | level of expressed mRNA in the presence/in the absence of chemical substance (yeast gene YMR083W) | The level of expressed mRNA in the presence of chemical substance/The level of expressed mRNA in the absence of chemical substance (yeast gene YOR099W) | level of expressed mRNA in the presence/in the absence of chemical substance (yeast gene YOR103C) | level of expressed mRNA in the presence/in the absence of chemical substance (yeast gene YPR165W)
1.1: The level of expressed mRNA in the presence of chemical substance/The level of expressed mRNA in the absence of chemical substance (yeast gene YMR008C) | The level of expressed mRNA in the presence of chemical substance/The level of expressed mRNA in the absence of chemical substance (yeast gene YMR271C) | The level of expressed mRNA in the presence of chemical substance/The level of expressed mRNA in the absence of chemical substance (yeast gene YNL045W) | level of expressed mRNA in the presence/in the absence of chemical substance (yeast gene YOR002W) | level of expressed mRNA in the presence/in the absence of chemical substance (yeast gene YOR108W) | level of expressed mRNA in the presence/in the absence of chemical substance (yeast gene YOR128C) | level of expressed mRNA in the presence/in the absence of chemical substance (yeast gene YPL148C)
0.6: The level of expressed mRNA in the presence of chemical substance/The level of expressed mRNA in the absence of chemical substance (yeast gene YJR148W) | The level of expressed mRNA in the presence of chemical substance/The level of expressed mRNA in the absence of chemical substance (yeast gene YLR299W) | level of expressed mRNA in the presence/in the absence of chemical substance (yeast gene YLR304C)
2.1: The level of expressed mRNA in the presence of chemical substance/The level of expressed mRNA in the absence of chemical substance (yeast gene YNL231C) | level of expressed mRNA in the presence/in the absence of chemical substance (yeast gene YOL108C)
1.6: level of expressed mRNA in the presence/in the absence of chemical substance (yeast gene YKL060C) | level of expressed mRNA in the presence/in the absence of chemical substance (yeast gene YLR006C) | level of expressed mRNA in the presence/in the absence of chemical substance (yeast gene YLR056W) | level of expressed mRNA in the presence/in the absence of chemical substance (yeast gene YLR284C) | level of expressed mRNA in the presence/in the absence of chemical substance (yeast gene YLR354C) | The level of expressed mRNA in the presence of chemical substance/The level of expressed mRNA in the absence of chemical substance (yeast gene YNL331C) | The level of expressed mRNA in the presence of chemical substance/The level of expressed mRNA in the absence of chemical substance (yeast gene YNL332W) | level of expressed mRNA in the presence/in the absence of chemical substance (yeast gene YPL135W)
1.0: The level of expressed mRNA in the presence of chemical substance/The level of expressed mRNA in the absence of chemical substance (yeast gene YKL091C) | The level of expressed mRNA in the presence of chemical substance/The level of expressed mRNA in the absence of chemical substance (yeast gene YKL215C) | The level of expressed mRNA in the presence of chemical substance/The level of expressed mRNA in the absence of chemical substance (yeast gene YKR039W) | level of expressed mRNA in the presence/in the absence of chemical substance (yeast gene YLR081W) | level of expressed mRNA in the presence/in the absence of chemical substance (yeast gene YOR085W) | level of expressed mRNA in the presence/in the absence of chemical substance (yeast gene YOR176W) | level of expressed mRNA in the presence/in the absence of chemical substance (yeast gene YOR178C) | level of expressed mRNA in the presence/in the absence of chemical substance (yeast gene YPL028W)
1.9: level of expressed mRNA in the presence/in the absence of chemical substance (yeast gene YOL086C) | level of expressed mRNA in the presence/in the absence of chemical substance (yeast gene YPL057C)
1.3: The level of expressed mRNA in the presence of chemical substance/The level of expressed mRNA in the absence of chemical substance (yeast gene YKL152C) | level of expressed mRNA in the presence/in the absence of chemical substance (yeast gene YML022W) | The level of expressed mRNA in the presence of chemical substance/The level of expressed mRNA in the absence of chemical substance (yeast gene YML054C) | The level of expressed mRNA in the presence of chemical substance/The level of expressed mRNA in the absence of chemical substance (yeast gene YNL012W) | The level of expressed mRNA in the presence of chemical substance/The level of expressed mRNA in the absence of chemical substance (yeast gene YNR033W) | The level of expressed mRNA in the presence of chemical substance/The level of expressed mRNA in the absence of chemical substance (yeast gene YOR336W) | The level of expressed mRNA in the presence of chemical substance/The level of expressed mRNA in the absence of chemical substance (yeast gene YPL017C)
1.4: The level of expressed mRNA in the presence of chemical substance/The level of expressed mRNA in the absence of chemical substance (yeast gene YKL104C) | The level of expressed mRNA in the presence of chemical substance/The level of expressed mRNA in the absence of chemical substance (yeast gene YLR307W) | level of expressed mRNA in the presence/in the absence of chemical substance (yeast gene YLR372W) | The level of expressed mRNA in the presence of chemical substance/The level of expressed mRNA in the absence of chemical substance (yeast gene YML070W) | The level of expressed mRNA in the presence of chemical substance/The level of expressed mRNA in the absence of chemical substance (yeast gene YMR020W) | The level of expressed mRNA in the presence of chemical substance/The level of expressed mRNA in the absence of chemical substance (yeast gene YNL322C) | The level of expressed mRNA in the presence of chemical substance/The level of expressed mRNA in the absence of chemical substance (yeast gene YNR059W) | level of expressed mRNA in the presence/in the absence of chemical substance (yeast gene YOR142W) | The level of expressed mRNA in the presence of chemical substance/The level of expressed mRNA in the absence of chemical substance (yeast gene YPR167C)
1.2: level of expressed mRNA in the presence/in the absence of chemical substance (yeast gene YMR205C) | The level of expressed mRNA in the presence of chemical substance/The level of expressed mRNA in the absence of chemical substance (yeast gene YNR002C) | The level of expressed mRNA in the presence of chemical substance/The level of expressed mRNA in the absence of chemical substance (yeast gene YOL058W) | The level of expressed mRNA in the presence of chemical substance/The level of expressed mRNA in the absence of chemical substance (yeast gene YOL153C) | level of expressed mRNA in the presence/in the absence of chemical substance (yeast gene YOL156W)
0.9: level of expressed mRNA in the presence/in the absence of chemical substance (yeast gene YKR034W) | The level of expressed mRNA in the presence of chemical substance/The level of expressed mRNA in the absence of chemical substance (yeast gene YLR348C) | The level of expressed mRNA in the presence of chemical substance/The level of expressed mRNA in the absence of chemical substance (yeast gene YML100W) | level of expressed mRNA in the presence/in the absence of chemical substance (yeast gene YMR011W) | The level of expressed mRNA in the presence of chemical substance/The level of expressed mRNA in the absence of chemical substance (yeast gene YMR105C) | level of expressed mRNA in the presence/in the absence of chemical substance (yeast gene YMR261C) | level of expressed mRNA in the presence/in the absence of chemical substance (yeast gene YNL192W) | The level of expressed mRNA in the presence of chemical substance/The level of expressed mRNA in the absence of chemical substance (yeast gene YOL165C) | level of expressed mRNA in the presence/in the absence of chemical substance (yeast gene YOR348C) | level of expressed mRNA in the presence/in the absence of chemical substance (yeast gene YPR183W)
2.0: level of expressed mRNA in the presence/in the absence of chemical substance (yeast gene YPR113W)
1.7: level of expressed mRNA in the presence/in the absence of chemical substance (yeast gene YLR044C) | level of expressed mRNA in the presence/in the absence of chemical substance (yeast gene YMR015C) | The level of expressed mRNA in the presence of chemical substance/The level of expressed mRNA in the absence of chemical substance (yeast gene YNL037C) | level of expressed mRNA in the presence/in the absence of chemical substance (yeast gene YOL116W)
0.7: The level of expressed mRNA in the presence of chemical substance/The level of expressed mRNA in the absence of chemical substance (yeast gene YJR155W) | The level of expressed mRNA in the presence of chemical substance/The level of expressed mRNA in the absence of chemical substance (yeast gene YKL213C) | level of expressed mRNA in the presence/in the absence of chemical substance (yeast gene YLR058C) | level of expressed mRNA in the presence/in the absence of chemical substance (yeast gene YMR323W) | level of expressed mRNA in the presence/in the absence of chemical substance (yeast gene YNL025C) | The level of expressed mRNA in the presence of chemical substance/The level of expressed mRNA in the absence of chemical substance (yeast gene YNL169C) | The level of expressed mRNA in the presence of chemical substance/The level of expressed mRNA in the absence of chemical substance (yeast gene YOL126C) | The level of expressed mRNA in the presence of chemical substance/The level of expressed mRNA in the absence of chemical substance (yeast gene YOR347C)
1.8: The level of expressed mRNA in the presence of chemical substance/The level of expressed mRNA in the absence of chemical substance (yeast gene YOR130C)
